pIC50: −log10 of the molar value.
Assays:
Plasma kallikrein [1] = biological target: T1, Plasma kallikrein (Homo sapiens, UniProt P03952); experiment: Inhibition of plasma kallikrein
[2] = biological target: Urokinase-type plasminogen activator (Homo sapiens) (UniProt P00749); experiment: Inhibition of urokinase at 500 uM
Plasminogen [3] = biological target: T2, Plasminogen (Homo sapiens, UniProt P00747); experiment: Inhibition of plasmin
Plasma kallikrein [4] = biological target: T1, Plasma kallikrein; experiment: Inhibition of plasma kallikrein at 250 uM
[5] = biological target: Urokinase-type plasminogen activator (Homo sapiens) (UniProt P00749); experiment: Inhibition of urokinase at 200 uM
Plasminogen [6] = biological target: T2, Plasminogen; experiment: Inhibition of plasmin at 250 uM
Plasma kallikrein [7] = biological target: T1, Plasma kallikrein; experiment: Inhibition of plasma kallikrein at 1000 uM
[8] = biological target: Urokinase-type plasminogen activator (Homo sapiens) (UniProt P00749); experiment: Inhibition of urokinase at 1000 uM
[9] = biological target: Urokinase-type plasminogen activator (Homo sapiens) (UniProt P00749); experiment: Inhibition of urokinase at 400 uM

T1 sequence (P03952 20-390 limits assumed): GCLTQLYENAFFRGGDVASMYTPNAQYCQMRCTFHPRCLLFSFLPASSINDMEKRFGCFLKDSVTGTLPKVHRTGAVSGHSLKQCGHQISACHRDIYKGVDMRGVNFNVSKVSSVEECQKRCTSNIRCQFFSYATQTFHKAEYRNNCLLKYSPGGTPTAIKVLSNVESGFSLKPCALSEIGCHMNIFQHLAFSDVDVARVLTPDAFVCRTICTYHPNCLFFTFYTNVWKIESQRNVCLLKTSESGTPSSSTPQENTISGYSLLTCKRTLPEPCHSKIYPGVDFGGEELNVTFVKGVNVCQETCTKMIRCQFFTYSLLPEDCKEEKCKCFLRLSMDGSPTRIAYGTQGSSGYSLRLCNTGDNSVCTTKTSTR
T1 sequence (P03952 391-638 limits assumed): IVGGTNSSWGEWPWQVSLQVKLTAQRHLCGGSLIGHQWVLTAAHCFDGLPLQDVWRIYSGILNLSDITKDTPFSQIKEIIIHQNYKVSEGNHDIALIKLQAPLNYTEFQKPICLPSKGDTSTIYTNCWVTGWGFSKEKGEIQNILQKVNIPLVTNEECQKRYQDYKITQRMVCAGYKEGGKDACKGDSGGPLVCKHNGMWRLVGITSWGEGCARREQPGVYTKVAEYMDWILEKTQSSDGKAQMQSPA
T2 sequence (P00747 97-580 limits assumed): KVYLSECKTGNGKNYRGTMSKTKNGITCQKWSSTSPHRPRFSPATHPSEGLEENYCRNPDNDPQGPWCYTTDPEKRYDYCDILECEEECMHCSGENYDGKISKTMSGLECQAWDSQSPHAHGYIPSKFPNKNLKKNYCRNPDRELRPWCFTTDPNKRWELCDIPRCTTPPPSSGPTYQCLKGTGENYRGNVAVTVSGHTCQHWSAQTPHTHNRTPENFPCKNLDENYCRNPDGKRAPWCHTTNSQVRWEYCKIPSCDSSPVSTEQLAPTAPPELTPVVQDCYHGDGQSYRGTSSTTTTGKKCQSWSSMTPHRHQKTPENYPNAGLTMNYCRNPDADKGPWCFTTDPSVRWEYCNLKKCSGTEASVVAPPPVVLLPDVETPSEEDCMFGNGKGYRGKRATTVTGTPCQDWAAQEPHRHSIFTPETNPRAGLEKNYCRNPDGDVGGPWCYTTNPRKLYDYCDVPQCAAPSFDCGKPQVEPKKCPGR
T2 sequence (P00747 581-810 limits assumed): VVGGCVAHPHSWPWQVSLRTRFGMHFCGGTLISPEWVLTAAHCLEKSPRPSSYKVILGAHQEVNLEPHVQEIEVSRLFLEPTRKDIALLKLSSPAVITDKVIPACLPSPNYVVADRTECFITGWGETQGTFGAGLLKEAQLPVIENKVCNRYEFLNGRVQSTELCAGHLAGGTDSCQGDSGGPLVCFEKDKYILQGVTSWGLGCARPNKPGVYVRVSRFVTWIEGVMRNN

SMILES | pIC50 (Plasma kallikrein [1]) | pIC50 (Plasminogen [3]) | inhibition [5] [%] | inhibition (Plasma kallikrein [7]) [%] | inhibition [8] [%] | also measured
COc1ccc(C(=O)N[C@H](C#N)CCCCN)cc1NC(=O)CCc1cn(Cc2ccc(F)cc2)c2ccccc12 |  |  | 0 |  |  | inhibition (Plasma kallikrein [4]): 22%; inhibition (Plasminogen [6]): 0%
CC[C@@H](C)[C@@H](N)C(=O)N[C@@H](Cc1ccccc1)C(=O)N[C@@H](CCCCN)C(N)=O |  | 3.54 |  | 0 | 0 | 
N#C[C@H](CCCCN)NC(=O)c1ccc(OCc2ccncc2)c(NC(=O)Cc2ccc(F)cc2)c1 |  | 3.23 |  | 11 | 19 | 
N#C[C@H](CCCCN)NC(=O)c1ccc(OCc2ccncc2)c(NC(=O)CCc2cn(Cc3ccc(F)cc3)c3ccccc23)c1 |  | 3.85 |  | 0 |  | inhibition [9]: 0%
N#C[C@H](CCCCN)NC(=O)c1ccc(OCc2ccncc2)cc1 |  | 3.62 |  | 45 | 16 | 
CC(C)(C)OC(=O)n1cc(CCC(=O)Nc2cc(C(=O)N[C@H](C#N)CCCCN)ccc2OCc2ccncc2)c2ccccc21 | 3.04 | 3.66 | 0 |  |  | 

The remaining molecules from weak to strong by pIC50 (Plasminogen [3]), led by results:

pIC50 (Plasma kallikrein [1]) | pIC50 (Plasminogen [3]) | inhibition [5] [%] | inhibition (Plasma kallikrein [7]) [%] | inhibition [8] [%] | SMILES | also measured
3.17 | 3.24 |  |  |  | N#C[C@H](CCCCN)NC(=O)c1ccc(OCc2ccncc2)c(NC(=O)Cc2cccc3ccccc23)c1 | inhibition [2]: 16%
 | 3.43 | 0 | 44 |  | N#C[C@H](CCCCN)NC(=O)c1ccc(OCc2ccncc2)c(NC(=O)CCc2c[nH]c3ccccc23)c1 | 
3.42 | 3.66 |  |  |  | N#C[C@H](CCCCN)NC(=O)c1ccc(OCc2ccncc2)c(NC(=O)Cc2ccc3ccccc3c2)c1 | inhibition [2]: 20%
 | 4.11 |  | 38 | 15 | CC[C@@H](C)[C@@H](N)C(=O)N[C@@H](Cc1ccccc1)C(=O)N[C@H](C#N)CCCCN | 

Source: ChEMBL document CHEMBL1909593, “Identification of novel plasmin inhibitors possessing nitrile moiety as warhead” (Bioorg Med Chem Lett, 2011)
